These results are taken from publication PMC8092876, “A Leucyl-tRNA Synthetase Inhibitor with Broad-Spectrum Antimycobacterial Activity” (Antimicrobial Agents and Chemotherapy, 2021).

Structures are written as SMILES. ≈ marks a conversion by molar mass, not a printed value. Some results are limits rather than exact numbers.

Series [1] relates to M. tuberculosis H37Rv ATCC 27294. Put plainly: MIC assay in 96-well plate format. The series is classed as cell-based. The following applies: Mycobacterium tuberculosis, 168 h.
The next series deals with M. chimaera CCUG 50989T. Description: MIC assay in 96-well plate format. The series is classed as cell-based. The following applies: CCUG50989T, culture collection reference strain.
In series [2] the test system is M. abscessus Bamboo. Put plainly: MIC assay in 96-well plate format. The series is classed as cell-based, M. abscessus subsp. abscessus. The following applies: Mycobacteroides abscessus.
Series [3] is described as follows: Kinetic aqueous solubility assay (CLND). The series is classed as physicochemical. The following applies: aqueous buffer, kinetic from dmso stock, pH 7.4 phosphate-buffered saline. On the procedure:
The aqueous solubility of test compounds was measured using an in-house method utilizing quantification via chemiluminescent nitrogen detection (CLND): 5 μl of 10 mM DMSO stock solution was diluted to 100 μl with pH 7.4 phosphate-buffered saline, equilibrated for 1 h at room temperature, and filtered through Millipore Multiscreen HTS-PCF filter plates (MSSL BPC). The eluent is quantified by a suitably calibrated flow injection chemiluminescent nitrogen detection (CLND or CAD). This assay has a dynamic range between the lower detection limit of 1 and 500 μM, governed by the protocol’s 1:20 dilution into pH 7.4 phosphate buffer solution from nominal 10 mM DMSO stock.

The test system of series [4] is M. abscessus subsp. abscessus M337. Description: MIC assay in 96-well plate format. The following applies: Mycobacteroides abscessus; M. abscessus subsp. abscessus M337, clinical isolate. The format is cell-based.
Series [5] relates to M. abscessus Bamboo RM1 (LeuS A428P). Put plainly: microbe, parasite or virus in culture. The series is classed as cell-based. The following applies: Mycobacteroides abscessus.
The test system of series [6] is M. abscessus Bamboo. Description: MIC and MBC determination in culture tubes (planktonic).
Experimental: M. abscessus Bamboo culture was grown to mid-log-phase (OD600 = 0.4 to 0.6) and diluted to OD600 = 0.1 (1 × 10^7 CFU/ml). Aliquots of 1.2 ml of the resulting bacteria suspension were transferred into 14 ml vented, round-bottom tubes (Thermo Fisher 150268, Rochester, NY, United States). A 10-point 2-fold dilution series of the compound was prepared, starting at 100 times the desired highest concentration. The compound concentration range tested was 100 to 0.195 μM. For each drug concentration tested, 12 μl of drug stock was added to two tubes and vortexed. Aliquots of 12 μl of DMSO were added to two tubes as the untreated controls (1% final DMSO concentration). From each tube, 200 μl was transferred to wells on a 96-well plate and the OD600 was measured using a Tecan Infinite M200 plate reader (day 0 reading). The tubes (1 ml final volume) were incubated on a tilted rack at 37°C on an orbital shaker at 220 rpm. On day 2, tubes were vortexed before transferring 200 μl onto a 96-well plate to measure the OD600 again (day 2 reading). To determine the MIC, day 0 and day 2 OD600 values were analyzed as previously described for MIC determination in 96-well plate format. To determine the MBC, CFU measurement was done for the OD600 = 0.1 bacteria suspension on day 0 and for each tube on day 2. Specifically, serial 10-fold dilutions were prepared in phosphate-buffered saline (Thermo Fisher 10010023) containing 0.025% Tween 80 (PBS/Tween 80) and plated on 7H10 agar. The MBC was defined as the lowest concentration of drug that reduced the CFU/ml value by 10-fold relative to the day 0 CFU/ml value.
Series [7] has as its system M. abscessus subsp. bolletii M506. Put plainly: MIC assay in 96-well plate format. The series is classed as cell-based. The following applies: Mycobacteroides abscessus; M. abscessus subsp. bolletii M506, clinical isolate.
A short description of a further series: ChromlogD assay. The following applies: reversed phase HPLC column (Gemini NX C18), pH 7.4. The format is physicochemical. Here is the method: The Chromatographic Hydrophobicity Index (CHI) values are measured using reversed phase high-performance liquid chromatography (HPLC) column (50 by 2 mm […] Gemini NX C18, Phenomenex, UK) with fast acetonitrile gradient at starting mobile phase of pHs 2, 7.4, and 10.5. CHI values are derived directly from the gradient retention times by using a calibration line obtained for standard compounds. The CHI value approximates to the volume percent organic concentration when the compound elutes. CHI is linearly transformed into ChromlogD by least-square fitting of experimental CHI values to calculated ClogP values for over 20,000 research compounds using the following formula: ChromlogD = (0.0857 × CHI) − 2.00. The average error of the assay is ±3 CHI unit or ±0.25 ChromlogD.

The test system of series [8] is M. abscessus subsp. abscessus K21. Put plainly: M. abscessus mouse infection model. The following applies: NOD SCID mice, intranasal infection, 10 mg/kg orally once daily for 10 days, day 11. The series is classed as in vivo. On the procedure:
In vivo efficacy determinations were carried out as described previously, using 8-week-old female NOD.CB17-Prkdc^scid/NCrCrl (NOD SCID) mice (Charles River Laboratories) and the M. abscessus subsp. abscessus K21 strain ([38]). Briefly, anesthetized animals were infected by intranasal delivery of ∼10^6 CFU of M. abscessus subsp. abscessus K21. Acute infection was achieved within 1 day. Drugs or the vehicle control were administered to NOD SCID mice once daily for 10 consecutive days by oral gavage, starting from 1 day postinfection. Clarithromycin was formulated in 0.4% methyl cellulose-sterile water and administered at a dose of 250 mg/kg. EC/11770 was formulated in 0.4% methyl cellulose-sterile water and administered at 10 mg/kg. All mice were euthanized 24 h after the last dose (11 days postinfection), and their lungs and spleen were aseptically removed prior to homogenization. The bacterial load in these organs was determined by plating serial dilutions of the organ homogenates onto Middlebrook 7H11 agar (BD Difco) supplemented with 0.2% (vol/vol) glycerol and 10% (vol/vol) oleic acid-albumin-dextrose-catalase (OADC). The agar plates were incubated for 5 days at 37°C prior to counting of colonies. […]

Series [9] relates to M. abscessus Bamboo RM4 (LeuS T327R). Description: microbe, parasite or virus in culture. The series is classed as cell-based. The following applies: Mycobacteroides abscessus.
Series [10] has as its system M. abscessus subsp. massiliense CCUG 48898T. Description: MIC assay in 96-well plate format. The following applies: Mycobacteroides abscessus, culture collection reference strain. The series is classed as cell-based.
Series [11] deals with M. abscessus subsp. bolletii CCUG 50184T. Put plainly: MIC assay in 96-well plate format. The format is cell-based. The following applies: Mycobacteroides abscessus, culture collection reference strain.
Series [12] concerns M. intracellulare ATCC 13950. Put plainly: MIC assay in 96-well plate format. The following applies: Mycobacterium intracellulare, ATCC13950; M. intracellulare ATCC 13950, culture collection reference strain. The series is classed as cell-based.
Series [13] relates to M. abscessus subsp. abscessus M422. Put plainly: MIC assay in 96-well plate format. The series is classed as cell-based. The following applies: Mycobacteroides abscessus; M. abscessus subsp. abscessus M422, clinical isolate.
In series [14] the test system is M. abscessus subsp. abscessus K21. Description: MIC assay in 96-well plate format. The series is classed as cell-based. The following applies: Mycobacteroides abscessus; M. abscessus subsp. abscessus K21, clinical isolate, infection model.
Series [15] deals with M. abscessus subsp. abscessus M404. Description: MIC assay in 96-well plate format. The format is cell-based. The following applies: Mycobacteroides abscessus; M. abscessus subsp. abscessus M404, clinical isolate.
In series [16] the test system is M. abscessus subsp. abscessus ATCC 19977. Put plainly: MIC assay in 96-well plate format. The format is cell-based. The following applies: Mycobacteroides abscessus, ATCC19977; M. abscessus subsp. abscessus ATCC 19977, culture collection reference strain.

Regarding `CC(C)(O)COc1ccc(Br)c2c1B(O)O[C@@H]2CN` [EC/11770], the MIC in series [1] is 0.56 µM (≈ 0.185 µg/mL); against M. chimaera CCUG 50989T, 1.7 µM (≈ 0.561 µg/mL); against M. abscessus Bamboo [2], 0.9 µM (≈ 0.297 µg/mL); with M. abscessus Bamboo [2] (72 h, M. abscessus Bamboo, 7H9, 3 days, read-out: MIC), 1.2 µM (≈ 0.396 µg/mL); in the series with M. abscessus Bamboo [2] (72 h, M. abscessus Bamboo, CAMH broth, 3 days, read-out: MIC), 0.7 µM (≈ 0.231 µg/mL); in series [4] it was 0.5 µM (≈ 0.165 µg/mL). In addition, the MIC in [5] is over 100 µM; with M. abscessus Bamboo [6] (Mycobacteroides abscessus, 48 h) it was 3 µM (≈ 0.99 µg/mL); against M. abscessus Bamboo [6] (planktonic M. abscessus Bamboo in culture tubes, day 2) it was 3.0 µM (≈ 0.99 µg/mL); in series [7] it was 0.48 µM (≈ 0.158 µg/mL); in series [9], over 100 µM; in series [10] it was 0.71 µM (≈ 0.234 µg/mL). Besides, the MIC in series [11] was found to be 1.3 µM (≈ 0.429 µg/mL); in series [12], 0.37 µM (≈ 0.122 µg/mL); in series [13] it was 0.33 µM (≈ 0.109 µg/mL); in series [14] it was 0.6 µM (≈ 0.198 µg/mL); in [15], 0.52 µM (≈ 0.172 µg/mL); in [16], 0.7 µM (≈ 0.231 µg/mL). This compound also registered a solubility at 1 h in [3] of 349 µM (≈ 115 µg/mL). Further, the MBC was over 100 µM with M. abscessus Bamboo [6] (Mycobacteroides abscessus) and over 100 µM with M. abscessus Bamboo [6] (planktonic M. abscessus Bamboo in culture tubes, day 2, 10-fold CFU/ml reduction vs day 0). The same compound showed a chromatographic logD in the series “ChromlogD assay” of 0.97. Moreover, the “reduction in lung CFU” value in [8] was determined as 1.5 log.

Usually solubility stands for the concentration that dissolves in the medium under given conditions. Low values mean a poorly soluble substance, high ones a readily soluble substance. By MBC is commonly meant the smallest concentration meeting the test's criterion for killing. Lower therefore signals greater bactericidal potency. Broadly, the chromatographic logD is a lipophilicity value derived from retention on a column.
